From publication PMC12150604, “Exploring structure–activity relationships of pyrrolyl diketo acid derivatives as non-nucleoside inhibitors of terminal deoxynucleotidyl transferase enzyme” (Journal of Enzyme Inhibition and Medicinal Chemistry, 2025)
Several values for one entry are separate records, joined by “and”; a condition that tells them apart may be missing. Equal values may be shown once. Read-outs that look alike come from different tables or passages of the source.

Biological target: T1, human TdT (Homo sapiens, UniProt P04053)
T1 construct: purchased Trevigen (Gaithersburg, MD)
T1 sequence (P04053 whole entry): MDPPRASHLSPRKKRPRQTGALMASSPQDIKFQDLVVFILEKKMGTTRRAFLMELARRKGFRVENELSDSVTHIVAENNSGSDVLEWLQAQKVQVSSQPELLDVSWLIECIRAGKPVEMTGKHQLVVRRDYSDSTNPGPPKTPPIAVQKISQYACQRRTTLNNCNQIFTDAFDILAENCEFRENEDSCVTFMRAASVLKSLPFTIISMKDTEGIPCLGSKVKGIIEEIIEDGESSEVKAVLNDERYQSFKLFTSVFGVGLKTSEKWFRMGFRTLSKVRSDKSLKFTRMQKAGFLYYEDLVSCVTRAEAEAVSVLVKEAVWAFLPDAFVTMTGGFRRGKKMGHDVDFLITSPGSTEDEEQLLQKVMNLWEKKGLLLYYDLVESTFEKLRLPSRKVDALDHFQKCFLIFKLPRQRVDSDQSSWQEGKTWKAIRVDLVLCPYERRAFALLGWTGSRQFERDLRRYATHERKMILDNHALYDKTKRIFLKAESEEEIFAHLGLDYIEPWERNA
Assay: Terminal transferase assay, TdT
Type: biochemical
Settings: for IC50: human TdT
Protocol: Recombinant full-length human DNA polymerase λ and β were generated and purified as described. After purification, the protein was >90% homogeneous, as judged by sodium dodecyl sulphate (SDS)−polyacrylamide gel electrophoresis (PAGE) and Coomassie staining. TdT was from Trevigen (Gaithersburg, MD).
Terminal Transferase Assay. DNA polymerase λ and TdT terminal transferase activities were assayed in a final volume of 25 μL containing 50 mM Tris-HCl (pH 7.0), 0.25 mg/mL BSA, 1 mM DTT, 0.2 μM ss 30mer (AAC)10 DNA oligonucleotide, 25 μM [3H]dNTPs (10 Ci/mmol) and 0.5 mM MnCl2 or 5 mM MgCl2 used as cofactors. Terminal transferase activity was monitored in the presence of 10% DMSO or in the presence of increasing amounts of inhibitors dissolved in DMSO. All reactions were incubated for 10 min at 37 °C and the DNA precipitated with 10% trichloroacetic acid. Insoluble radioactive material was determined by scintillation counting using Trilux beta-counter (PerkinElmer) as described.
Dose − response curves were generated by computer fitting of the data to the equation E(%) = Emax/(1 + I/ID50) where E(%) is the fraction of enzyme’s activity measured in the presence of the inhibitor, Emax is the activity in the absence of the inhibitor, I is the inhibitor concentration, and ID50 is the inhibitor concentration at which E(%) = 0.5 Emax. ID50 values were generated using GraphPad Prism 6.

[1] = Mg2+ as cofactor, read-out: ID50 (µM) Mg2+
[2] = Mn2+ as cofactor, read-out: ID50 (µM) Mn2+

| Compound | IC50 [1] | IC50 [2] [µM] | further results |
| --- | --- | --- | --- |
| CCOC(=O)/C(O)=C/C(=O)/C=C/c1c[nH]cc1-c1ccccc1 [Compound 7c] | 10.5 ± 3.6 µM | > 50 | – |
| O=C(/C=C(\O)C(=O)O)/C=C/c1cc(-c2ccccc2)cn1Cc1ccc(F)cc1 [Compound 6b, (2Z,5E)-6-(1-(4-fluorobenzyl)-4-phenyl-1H-pyrrol-2-yl)-2-hydroxy-4-oxohexa-2,5-dienoic acid] | > 50 µM | 6.9 ± 2.5 | – |
| CCOC(=O)/C(O)=C/C(=O)/C=C/c1cc(-c2ccccc2)cn1Cc1ccc(F)cc1 [Compound 5b, Ethyl (2Z,5E)-6-(1-(4-fluorobenzyl)-4-phenyl-1H-pyrrol-2-yl)-2-hydroxy-4-oxohexa-2,5-dienoate] | – | > 50 | – |
| (E)-6-(1-(4-fluorobenzyl)-4-(4-phenoxybenzoyl)-1H-pyrrol-2-yl)-2,4-dioxohex-5-enoic acid [Compound 6e] | – | >50 | – |
| O=C(O)/C(O)=C/C(=O)c1ccn(Cc2ccc(F)cc2)c1 [Compound 12a, (Z)-4-(1-(4-fluorobenzyl)-1H-pyrrol-3-yl)-2-hydroxy-4-oxobut-2-enoic acid] | – | 2.8 ± 0.7 | – |
| CCOC(=O)/C(O)=C/C(=O)/C=C/c1cc(C(=O)c2ccccc2)cn1S(=O)(=O)c1ccc(F)cc1 [Compound 5m] | 3.87 ± 0.55 µM | 8.75 ± 0.35 | – |
| CCOC(=O)/C(O)=C/C(=O)c1cc(-c2ccccc2)cn1Cc1ccc(F)cc1 [Compound 9b, Ethyl (Z)-4-(1-(4-fluorobenzyl)-4-phenyl-1H-pyrrol-2-yl)-2-hydroxy-4-oxobut-2-enoate] | – | > 50 | – |
| CCOC(=O)/C(O)=C/C(=O)c1ccn(Cc2ccc(F)cc2)c1 [Compound 11a, Ethyl (Z)-4-(1-(4-fluorobenzyl)-1H-pyrrol-3-yl)-2-hydroxy-4-oxobut-2-enoate] | – | > 50 | – |
| CCOC(=O)/C(O)=C/C(=O)/C=C/c1cc(C(=O)c2ccc(NC(=O)c3ccc(OC)c(Br)c3)cc2)cn1Cc1ccc(F)cc1 [Compound 5g] | 0.91 ± 0.36 µM | > 50 | – |
| COc1cc(C(=O)c2c[nH]c(/C=C/C(=O)/C=C(\O)C(=O)O)c2)cc(OC)c1OC [Compound 6k] | 0.86 ± 0.14 µM | 0.38 ± 0.06 | – |
| CCOC(=O)/C(O)=C/C(=O)/C=C/c1cn(Cc2ccc(F)cc2)cc1-c1ccccc1 [Compound 7b, Ethyl (2Z,5E)-6-(1-(4-fluorobenzyl)-4-phenyl-1H-pyrrol-3-yl)-2-hydroxy-4-oxohexa-2,5-dienoate] | – | 2.72 ± 0.73 | – |
| CCOC(=O)/C(O)=C/C(=O)/C=C/c1cccn1Cc1ccc(F)cc1 [Compound 5a, Ethyl (2Z,5E)-6-(1-(4-fluorobenzyl)-1H-pyrrol-2-yl)-2-hydroxy-4-oxohexa-2,5-dienoate] | – | > 50 | – |
| CCOC(=O)/C(O)=C\C(=O)/C=C/c1cc(C(=O)c2ccc([N+](=O)[O-])cc2)cn1Cc1ccc(F)cc1 [Compound 5f] | 6.54 ± 0.78 µM | > 50 | – |
| O=C(/C=C(\O)C(=O)O)/C=C/c1ccn(Cc2ccc(F)cc2)c1 [Compound 8a, (2Z,5E)-6-(1-(4-fluorobenzyl)-1H-pyrrol-3-yl)-2-hydroxy-4-oxohexa-2,5-dienoic acid] | – | 6.31 ± 2.8 | – |
| CCOC(=O)/C(O)=C/C(=O)/C=C/c1cc(C(=O)c2ccc(OCc3ccc4ccccc4c3)cc2)cn1Cc1ccc(F)cc1 [Compound 5d] | 5.83 ± 1.76 µM | > 50 | – |
| CCOC(=O)/C(O)=C/C(=O)c1cccn1Cc1ccc(F)cc1 [Compound 9a, Ethyl (Z)-4-(1-(4-fluorobenzyl)-1H-pyrrol-2-yl)-2-hydroxy-4-oxobut-2-enoate] | – | > 50 | – |
| O=C(/C=C/c1cc(C(=O)c2ccc([N+](=O)[O-])cc2)cn1Cc1ccc(F)cc1)/C=C(/O)C(=O)O [Compound 6f] | 0.64 ± 0.25 µM | 7.71 ± 2.4 | – |
| O=C(/C=C(\O)C(=O)O)/C=C/c1cc(C(=O)c2ccccc2)cn1Cc1cccc2ccccc12 [Compound 6j] | 2.11 ± 0.5 µM | > 50 | – |

| Compound | IC50 [1] | IC50 [2] [µM] | further results |
| --- | --- | --- | --- |
| O=C(/C=C(\O)C(=O)O)/C=C/c1cc(C(=O)c2ccccc2)cn1S(=O)(=O)c1ccc(F)cc1 [Compound 6m] | 0.34 ± 0.01 µM | 0.33 ± 0.05 | – |
| O=C(/C=C(\O)C(=O)O)/C=C/c1cc(C(=O)c2ccccc2)c[nH]1 [Compound 6l, (2Z,5E)-6-(4-benzoyl-1H-pyrrol-2-yl)-2-hydroxy-4-oxohexa-2,5-dienoic acid] | 0.22 ± 0.01 µM | 0.3 ± 0.13 | – |
| O=C(/C=C(\O)C(=O)O)/C=C/c1cn(Cc2ccc(F)cc2)cc1-c1ccccc1 [Compound 8b, (2Z,5E)-6-(1-(4-fluorobenzyl)-4-phenyl-1H-pyrrol-3-yl)-2-hydroxy-4-oxohexa-2,5-dienoic acid] | – | 0.66 ± 0.12 | – |
| O=C(/C=C(\O)C(=O)O)/C=C/c1c[nH]cc1-c1ccccc1 [Compound 8c] | – | 0.19 ± 0.08 | improvement in inhibitory activity in respect to hit compound 4 (TdT): higher than 3 times |
| CCOC(=O)/C(O)=C/C(=O)/C=C/c1cc(C(=O)c2ccc3c(c2)OCCO3)cn1Cc1ccc(F)cc1 [Compound 5c] | – | > 50 | – |
| COc1cc(-c2c[nH]cc2/C=C/C(=O)/C=C(\O)C(=O)O)cc(OC)c1OC [Compound 8d] | 0.24 ± 0.03 µM | 0.23 ± 0.03 | – |
| O=C(/C=C(\O)C(=O)O)/C=C/c1cc(C(=O)c2ccc(OCc3ccc4ccccc4c3)cc2)cn1Cc1ccc(F)cc1 [Compound 6d] | 12.8 ± 4.2 µM | > 50 | – |
| CCOC(=O)/C(O)=C/C(=O)/C=C/c1cc(C(=O)c2ccccc2)c[nH]1 [Compound 5l, (2Z,5E)-ethyl 6-(4-benzoyl-1H-pyrrol-2-yl)-2-hydroxy-4-oxohexa-2,5-dienoate] | 37.8 µM and 35.8 µM | > 50 | – |
| O=C(O)/C(O)=C/C(=O)c1cccn1Cc1ccc(F)cc1 [Compound 10a, (Z)-4-(1-(4-fluorobenzyl)-1H-pyrrol-2-yl)-2-hydroxy-4-oxobut-2-enoic acid] | – | 1.16 ± 0.35 | – |
| O=C(/C=C(\O)C(=O)O)/C=C/c1cc(C(=O)c2ccc3c(c2)OCCO3)cn1Cc1ccc(F)cc1 [Compound 6c] | – | 4.07 ± 0.81 | – |
| COc1ccc(C(=O)Nc2ccc(C(=O)c3cc(/C=C/C(=O)/C=C(\O)C(=O)O)n(Cc4ccc(F)cc4)c3)cc2)cc1Br [Compound 6g] | 0.41 ± 0.03 µM | > 50 | – |
| CCOC(=O)/C(O)=C/C(=O)/C=C/c1ccn(Cc2ccc(F)cc2)c1 [Compound 7a, Ethyl (2Z,5E)-6-(1-(4-fluorobenzyl)-1H-pyrrol-3-yl)-2-hydroxy-4-oxohexa-2,5-dienoate] | – | > 50 | – |
| O=C(/C=C(\O)C(=O)O)/C=C/c1cccn1Cc1ccc(F)cc1 [Compound 6a, (2Z,5E)-6-(1-(4-fluorobenzyl)-1H-pyrrol-2-yl)-2-hydroxy-4-oxohexa-2,5-dienoic acid] | > 50 µM | 1.63 ± 0.35 | times higher activity than 4-phenyl counterpart 6b (TdT, Mn2+, ratio of ID50): 4 times; times more active than the hit compound 2 (TdT, Mn2+, ratio of ID50): about 6 times |
| O=C(O)/C(O)=C/C(=O)c1cc(-c2ccccc2)cn1Cc1ccc(F)cc1 [Compound 10b, (Z)-4-(1-(4-fluorobenzyl)-4-phenyl-1H-pyrrol-2-yl)-2-hydroxy-4-oxobut-2-enoic acid] | – | 3.25 ± 0.66 | – |
| CCOC(=O)/C(O)=C/C(=O)/C=C/c1c[nH]cc1-c1cc(OC)c(OC)c(OC)c1 [Compound 7d] | 21.3 ± 5.05 µM | > 50 | – |
| CCOC(=O)/C(O)=C/C(=O)/C=C/c1cc(C(=O)c2cc(OC)c(OC)c(OC)c2)c[nH]1 [Compound 5k] | 10.6 ± 3.6 µM | 1.28 ± 0.27 | times lower potency than acid counterpart 6k (TdT, Mn2+, ratio of ID50): 3 times |
| CCOC(=O)/C(O)=C/C(=O)/C=C/c1cc(C(=O)c2ccccc2)cn1Cc1cccc2ccccc12 [Compound 5j] | 3.68 ± 1 µM | > 50 | – |
